In article PMC4464473, “Synthesis of multivalent carbohydrate mimetics with aminopolyol end groups and their evaluation as L-selectin inhibitors” (Beilstein Journal of Organic Chemistry, 2015):

Target: T1, L-selectin (Homo sapiens, UniProt P14151)
T1 construct: gene SELL
T1 sequence (P14151 39-372): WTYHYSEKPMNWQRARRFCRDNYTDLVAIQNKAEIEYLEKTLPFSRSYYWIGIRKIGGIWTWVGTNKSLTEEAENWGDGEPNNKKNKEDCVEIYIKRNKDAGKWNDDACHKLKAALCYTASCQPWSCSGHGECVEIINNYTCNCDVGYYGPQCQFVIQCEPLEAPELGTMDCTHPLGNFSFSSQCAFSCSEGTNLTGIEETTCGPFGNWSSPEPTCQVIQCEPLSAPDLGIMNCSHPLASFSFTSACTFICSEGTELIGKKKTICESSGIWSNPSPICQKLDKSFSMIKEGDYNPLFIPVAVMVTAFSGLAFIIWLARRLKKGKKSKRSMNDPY
Test: competitive SPR binding assay

IC50 | Structure (SMILES)
1 µM | O=C(NC(COS(=O)(=O)O)COS(=O)(=O)O)c1ccc(C(=O)NC(COS(=O)(=O)O)COS(=O)(=O)O)cc1 [compound 32, O-sulfated divalent amide 32]
2 µM | CC1(C)O[C@H](COS(=O)(=O)O)[C@H](NC(=O)c2ccc(-c3cc(-c4ccc(C(=O)N[C@@H]5[C@@H](OS(=O)(=O)O)[C@H](COS(=O)(=O)O)C(C)(C)O[C@@H]5COS(=O)(=O)O)cc4)cc(-c4ccc(C(=O)N[C@@H]5[C@@H](OS(=O)(=O)O)[C@H](COS(=O)(=O)O)C(C)(C)O[C@@H]5COS(=O)(=O)O)cc4)c3)cc2)[C@@H](OS(=O)(=O)O)[C@@H]1COS(=O)(=O)O [compound 34, O-sulfated trivalent amide 34]
